Experiments:
Type in all cases: cell-based
[1] = test system: human primary renal proximal tubular epithelial cells (HRPTC); assay: Oil immersion induced hypoxia/reoxygenation (H/R) apoptosis, Caspase 3/7 IncuCyte live imaging
Description: Oil Immersion Induced Hypoxia/Reoxygenation in vitro: HRPTC (ScienCell Research Laboratories; Carlsbad, Calif.) were seeded in 96-well plates and cultured for 1 day until 70-80% confluence. Passages 3-5 were used for experiments. Caspase 3/7 green apoptosis assay agent (Essen BioScience; Ann Arbor, Mich.) was added to the culture medium for detection of apoptosis. Plates were then transferred to a time-lapsed, live imaging system IncuCyte (Essen BioScience) for apoptosis monitoring for a total of 24 hours. H/R in cells was mimicked with mineral oil (Sigma, St Louis, Mo.) immersion (Meldrum et al., J Surg Res, 99:288-293, 2001). Cells were immersed in oil for 2 hours, washed twice, and placed in fresh medium containing vehicle (H/R group) or drugs. ANP, BNP, and CRRL269 were used at concentrations of 10^−8, 10^−7, or 10^−6 M. PKG (an important cGMP binding protein) activating analogue 8-pCPT-cGMP (Sigma; St. Louis, Mo.), which is specific for PKG and has low affinity for phosphodiesterases, was used at concentrations of 10^−6, 10^−5, or 10^−4 M. Cells were treated with 10^−6-, 5×10^−6-, or 1.5×10^−5 M PKG inhibitor KT-5823 (Abcam; Cambridge, Mass.) for 30 minutes before 10^−6 M CRRL269 was added. Cells without H/R stimulation were labeled as the negative control (Neg Ctrl) group. Apoptosis signals (e.g., apoptosis object counts) were analyzed with software provided by IncuCyte.

[2] = test system: human primary aortic vascular smooth muscle cells (HASMC); assay: Intracellular calcium under ANGII stimulation (Fura-2); conditions: pretreatment at 10^−9 or 10^−7 M for 5 minutes, ANGII 10^−8 or 10^−7 M
Description: Measurements of Intracellular Calcium in Vascular Smooth Muscle Cells: HASMC (ScienCell Research Laboratories; Carlsbad, Calif.) were cultured and maintained as instructed by the manufacturer. Cells at passage 4 or 5 were used for experiments. Calcium imaging was performed as described elsewhere (Chai et al., Cardiovasc Res, 100:151-159, 2013). Briefly, cells were seeded on a 25 mm round cover glass (Fisher Scientific; Pittsburgh, Pa.) at a density of 5×10^4 cells per slide. The slides had been pretreated with 0.5 N NaOH for 8 hours, rinsed with water, and sterilized before use. After overnight culturing, the slides with cells were assembled in a MS-02 Chamber (ALA Scientific Instrument; Farmingdale, N.Y.) and loaded with 3 μM fura-2 AM (Invitrogen; Carlsbad, Calif.) for 30 minutes in a 37° C. incubator. The chamber was then placed on the stage of an inverted Olympus IX71 microscope (Olympus America Inc.; Waltham, Mass.). The cells were maintained in 1 mL HASMC medium and treated with or without ANP, BNP, or CRRL269 at concentration of 10^−9 or 10^−7 M for 5 minutes before perfused with 5 mL medium containing ANGII (10^−8 or 10^−7 M). Intracellular Ca2^+ fluorescence signals were measured as a ratio of fluorescence intensities at 510 nm from excitations of 340/380 nm, using a Hamamatsu ORCA-R2 CCD camera with a Sutter LB-LS/17 light source. Baseline fluorescence was recorded after 5 minutes of treatment, and fluorescence images were acquired continuously during the ANGII perfusion. Background fluorescence was subtracted and the calcium signal (F) was normalized to baseline fluorescence (FO) and expressed as a ratio (F/FO) using MetaFluor software (Olympus America Inc.).

[3] = test system: human renal fibroblasts (HRF); assay: Human renal fibroblast proliferation by cell counting; conditions: CNP at 10^−7 M every 24 hours, cell count at 72 hours
Description: Human Renal Fibroblasts Proliferation by Cell Counting: Human renal fibroblasts (HRF, Cell Biologics; Chicago, Ill.) were counted and seeded into 48-well plates with complete medium, and then incubated at 37° C., 5% CO2 overnight. The culture medium was replaced with fresh medium containing PBS or CNP at concentrations of 10^−8 or 10^−7 M, and cells were cultured for 72 hours. Fresh CNP was added at 24 and 48 hours. At 72 hours, HRF were trypsinized, stained with 0.2% trypan blue, and counted using a Cedex XS Analyzer (Roche; Indianapolis, Ind.).

Compound: COC(=O)[C@@]1(OC)C[C@H]2O[C@]1(C)n1c3ccccc3c3c4c(c5c6ccccc6n2c5c31)C(=O)N(C)C4 [KT-5823, reference compound]
- effect on antiapoptotic effects induced by CRRL269 ([1]; HRPTC, H/R, KT-5823 30 minutes before 10^−6 M CRRL269): abrogated

Compound: Nc1nc2c(nc(Sc3ccc(Cl)cc3)n2C2O[C@@H]3COP(=O)(O)O[C@H]3[C@H]2O)c(=O)[nH]1 (stereo in doubt) [8-pCPT-cGMP, reference compound]
- apoptosis inhibition in HRPTC after H/R ([1]; 8-pCPT-cGMP at 10^−6 and 10^−5 M): mimicked the apoptosis inhibition

Compound: CC[C@H](C)[C@@H]1NC(=O)[C@H](CCCNC(=N)N)NC(=O)[C@H](CC(=O)O)NC(=O)[C@H](CCSC)NC(=O)[C@H](CCCNC(=N)N)NC(=O)CNC(=O)CNC(=O)[C@H](Cc2ccccc2)NC(=O)[C@@H](NC(=O)[C@H](CO)NC(=O)[C@H](CO)NC(=O)[C@H](CCCNC(=N)N)NC(=O)[C@H](CCCNC(=N)N)NC(=O)[C@H](CC(C)C)NC(=O)[C@@H](N)CO)CSSC[C@@H](C(=O)N[C@@H](CC(N)=O)C(=O)N[C@@H](CO)C(=O)N[C@@H](Cc2ccccc2)C(=O)N[C@@H](CCCNC(=N)N)C(=O)N[C@@H](Cc2ccc(O)cc2)C(=O)O)NC(=O)CNC(=O)[C@H](CC(C)C)NC(=O)CNC(=O)[C@H](CO)NC(=O)[C@H](CCC(N)=O)NC(=O)[C@H](C)NC(=O)CNC1=O [ANP, atrial natriuretic peptide, reference compound]
- Ca2^+ enhancement by ANGII in HASMC [2]: suppressed

Compound: B-type natriuretic peptide [BNP, reference compound]
- Ca2^+ enhancement by ANGII in HASMC [2]: suppressed

Compound: C-type natriuretic peptide (GLSKGCFGLKLDRIGSMSGLGC; listed as Homo sapiens) [CNP]
- human renal fibroblast (HRF) proliferation [3]: suppressed

Reference: US20220155322A1, “USE OF NATRIURETIC PEPTIDES TO ASSESS AND TREAT ACUTE KIDNEY INJURY” (Mayo Foundation for Medical Education and Research, priority 2019, published 2022)
